Reference: a melting point compilation (Tetko et al.; mined from patent text by program, amines drawn as free bases though some values may be those of a salt)

Work on `CC(C)(C)OC(=O)c1cc([N+](=O)[O-])cc([N+](=O)[O-])c1N(CCO)CCCl` yielded a melting point of 106 to 107 °C. `CCCCCCCCOc1ccc(C(=O)Oc2ccc(-c3ccc(O)cc3)cc2)cc1` gave a melting point of 183 °C. Work on `O=C(NCCCOc1ccncc1)c1cccs1` yielded a melting point of 123 to 125 °C. For `CCOC(=S)c1cnc(C)nc1NC(=O)Nc1ccccc1Cl`, the melting point was 172 to 173 °C. Compound `CCn1ncnc1COc1nn2c(-c3ccccc3F)nncc2c1-c1ccncc1` has a melting point of 214 to 217 °C. With `Cc1c(C=CCO)[nH]c(=O)c2c1ccc1nc(Nc3c(Cl)cccc3Cl)n(C)c12` the melting point was 298 to 300 °C. `CC(C)(C)OC(=O)CC[C@H](NC(=O)c1ccc(N(CCCl)CCCl)cc1)C(=O)OC(C)(C)C` showed a melting point of 114 to 116 °C. Compound `C=CC(=O)Nc1ccc(-c2ccc(C(=O)N3CCN4CCC3CC4)o2)cc1` has a melting point of 230 to 246 °C. Compound `CCOC(=O)/C=C/c1cc(OCc2cn(-c3ccc(C(F)(F)F)cn3)nc2C)nn1C` has a melting point of 173 to 174 °C. In the case of `Cn1ncnc1COc1nc2c(cc1-c1ccsc1)nnn2-c1ccccc1F`, the melting point is reported as 133 to 135 °C. `O=c1[nH]c2cc(C(F)(F)F)c(Cl)c(Cl)c2[nH]c1=O` gave a melting point of over 250 °C. With `COc1ccc(COC(=O)Nc2cc(-n3cccn3)nc(-c3ccco3)n2)cc1OC` the melting point was 148 °C. `CCOc1nc(NC(C)=O)nc2ccc(Cl)nc12` showed a melting point of 233 °C. For `Cc1cc(-c2cc(=O)c3cccnc3o2)cc(C)c1OCC(=O)O`, the melting point was 280 °C. Work on `COc1nc(OC)nc(-n2cnc(S(C)(=O)=O)n2)n1` yielded a melting point of 170 °C. `O=C(/C=C/c1c[nH]c2ccccc12)c1ccccn1` showed a melting point of 141 to 145 °C. `Cc1c(C#N)c(=O)[nH]c(=O)n1Nc1c(Cl)cc(Cl)cc1Cl` gave a melting point of over 305 °C. `CCCCCCCCCCCCCCCCCNC(=O)O[C@@H]1CCCO[C@H]1CO` (relative stereo) showed a melting point of 84 to 86 °C. With `O=C(NCC1CC1)c1cccnc1Oc1cncc(Cl)c1` the melting point was 105 to 107 °C. `O=Cc1ccc(CCc2ccc(C=O)cc2)cc1` gave a melting point of 121 to 122 °C. `COC(=O)c1ccc2ccc(C(C)=O)cc2c1` gave a melting point of 103 to 105 °C. With `N[C@@H]1C[C@H]2c3ccccc3-c3cccc(c32)NC1=O` (relative stereo) the melting point was 104 to 107 °C. With `CN1CCc2cc(S(=O)(=O)Nc3cnc4cc(Cl)ccc4n3)ccc21` the melting point was 189 to 190 °C. Work on `COC(=O)c1ccccc1-c1nc(COc2ccc(CO)cc2OC)c(C)o1` yielded a melting point of 100 to 101 °C. Compound `COc1ccc(-c2ccc(C(=O)Nc3ccc4cc(CN5CCCC5)cnc4c3)c(F)c2)cc1` has a melting point of 174 °C. Compound `CC1CCN(C(=O)NCCc2ccc(S(=O)(=O)NC(=O)NC3CCC(C)C3)cc2)C(=O)C1` (centres undefined) has a melting point of 145 to 147 °C. Work on `CCc1cccc(C)c1S(=O)(=O)c1nn(C(=O)N(CC)CC)cc1OC` yielded a melting point of 102 to 104 °C. Compound `Cc1nc(-c2ccc(N)c(C#N)c2)c[nH]1` has a melting point of 89 to 91 °C. For `COC(=O)c1ccc(C(=O)NC2CCC(NC(=O)c3ccc(C(=O)OC)cc3)CC2)cc1` (centres undefined), the melting point was over 350 °C. With `CC(C)(C)OC(=O)N[C@H]1C(=O)N[C@H]1CON1C(=O)c2ccccc2C1=O` (relative stereo) the melting point was 218 to 219 °C. With `Cc1ccc(/C=C/c2nc(COc3ccc(CCCCn4ccnc4CCO)cc3)co2)cc1` the melting point was 108 to 109 °C. Compound `Cc1oc(-c2ccccc2)nc1CCOc1ccc(COc2ncccc2CC(=O)O)cc1` has a melting point of 134 to 135 °C. `CC(C)n1cc(C(=O)O)c2ccc(C(F)(F)F)cc21` gave a melting point of 177 to 178 °C. `COc1cc(C)ccc1S(=O)(=O)N1CCC(=O)C(C(c2ccccc2)c2ccccc2)C1` (centres undefined) showed a melting point of 130 to 131 °C. `Cc1cc(C2=CCN(CCCC(=O)c3ccc(F)cc3)CC2)on1` showed a melting point of 96 to 98 °C. In the case of `O=C(NC1CCCCC1)c1ccccc1I`, the melting point is reported as 148 to 149 °C. `CCC(=O)NCCC1=C(Cc2ccccc2)Cc2ccc(OC)cc21` gave a melting point of 149 to 151 °C. Compound `CCn1cc(C(=O)O)c(=O)c2cnc(N3CCN(C(C)=O)CC3)nc21` has a melting point of 298 to 300 °C. For `N#Cc1cnc2cc3ccccc3cc2c1Nc1ccc(Oc2ccccc2)cc1`, the melting point was 250 to 251 °C. `COc1ccc(-c2ccnc3c(C(N)=O)ncn23)cc1OC` showed a melting point of 262 to 265 °C. `Clc1nccc2cc(Br)ccc12` gave a melting point of 103 to 104 °C. Compound `CCCc1c(OCc2cccn3c(=O)c(C#N)cnc23)ccc(C(C)=O)c1O` has a melting point of 233 to 234 °C. In the case of `CCOC(=O)c1nc(N)sc1-c1cn2c(C)cccc2n1`, the melting point is reported as 234 to 236 °C. With `CCOC(=O)NN1CCN(CCCCC(=O)c2ccccc2)CC1` the melting point was 105 to 106 °C. Compound `Nc1ccccc(Br)c1=O` has a melting point of 133 to 135 °C. `COc1ccc(N2CCN(C3CCN(Cc4ccccc4)CC3)C2=O)cc1` gave a melting point of 144 to 147 °C. Work on `CN(C)CCCCC(=O)N1CCC(c2[nH]nc3c2C(=O)c2c(NC(=O)NN4CCOCC4)cccc2-3)CC1` yielded a melting point of 68 to 70 °C. Work on `O=c1cc(C(F)(F)F)ccn1-c1c(Cl)cc(C(Cl)Cl)cc1Cl` yielded a melting point of 176 to 177 °C. With `Cc1cc(-c2ccc(Cl)c(Cl)c2)nc(-n2cnc(-c3cccc(S(N)(=O)=O)c3)c2)n1` the melting point was 210 °C. Compound `CCOC(=O)C(=O)c1nsc(NC(=O)c2ccccc2)n1` has a melting point of 178 to 180 °C. Work on `O=C1Nc2ccc([N+](=O)[O-])cc2Cn2nnnc21` yielded a melting point of 276 to 279 °C. In the case of `CC1Cc2cc3c(cc2C(c2ccc(NC=O)cc2)=NN1C=O)OCO3` (centres undefined), the melting point is reported as 193 to 195 °C. `CCOc1cc(-c2cc(C(F)(F)F)n3ncc(-c4ccncc4)c3n2)ccc1C(F)(F)F` gave a melting point of 251 °C. Compound `FC(F)(F)c1ccc2c(Cl)nccc2n1` has a melting point of 90 °C. With `CN(C)Cc1ccc(CSCCN=CNS(=O)(=O)c2ccccc2)o1` the melting point was 83 to 85 °C. Compound `COc1cc(OS(=O)(=O)C(F)(F)F)c(Cl)c(C)c1Cl` has a melting point of 74 °C. `O=C(O)c1ccc(C2(C(=O)Oc3ccc(C(=O)NO)cc3)CCCCC2)cc1` showed a melting point of 169 to 170 °C. `O=c1ccc2cn(C3OC(CO)C(O)C3O)c(=O)[nH]c-2n1` (centres undefined) gave a melting point of 189 to 190 °C. Compound `COc1ccc(C(=O)Nc2ccc3ccc(Oc4ccccc4)nc3n2)cc1` has a melting point of 160 °C. `Cc1ccccc1-c1c(NC(=O)Nc2c(C)cccc2C(C)C)c(=O)n(C)c2ccc(Cl)cc12` showed a melting point of 195 to 196 °C. `OC1(c2ccc(F)cc2)CCC2CNCCC2C1` (centres undefined) showed a melting point of 174 to 175 °C. `CC(C)(C)[C@@H](CO)NS(=O)(=O)c1ccc(Cl)cc1` gave a melting point of 128 to 130 °C. In the case of `O=C(NCCCO)c1cc2ccccc2[nH]1`, the melting point is reported as 152 to 156 °C. With `CC(C)(C)OC(=O)/C=C/c1cccc(-c2nc(=O)c3ccccc3s2)n1` the melting point was 176 to 178 °C. With `Cc1c(C(=O)O)oc2ccc(Cc3cccnc3)cc12` the melting point was 223 to 225 °C. With `[N-]=[N+]=NC1(c2ccccc2Cl)C(=O)Nc2ccc(Cl)cc21` (centres undefined) the melting point was 178 °C. Compound `O=C(Nc1ccc2c(c1)CCC(CCN1CCCC1)=C2)c1ccc(-c2ccc(Cl)cc2)cc1` has a melting point of 207 to 209 °C. In the case of `CCCc1nn(-c2ccc(C(F)(F)F)cn2)cc1CCCOc1c(CC)cccc1CC(=O)O`, the melting point is reported as 146 to 147 °C. `N#CC(C#N)(CCSC(F)(F)C(F)Cl)CC(F)(F)C(F)(F)C(F)(F)C(F)F` (centres undefined) showed a melting point of 78 to 80 °C. With `CCOC(=O)Cc1csc(NS(=O)(=O)c2ccccc2)n1` the melting point was 129 to 130 °C. In the case of `CCOCCOC(=O)C1=C(C)NC(C#N)=C(C(=O)OCC)C1c1cccc([N+](=O)[O-])c1` (centres undefined), the melting point is reported as 89 to 91 °C. Work on `CCCCNc1nc(-c2ccccc2)co1` yielded a melting point of 52 to 53 °C. Compound `Oc1ccc(-c2cccc3sc4ccccc4c23)cc1` has a melting point of 117 to 119 °C. With `COc1cc(C(N)C(N)=O)c(F)cc1Cl` (centres undefined) the melting point was 162 °C. For `O=C1OCC2(CC2)N1c1nc(-c2ccc(Br)cc2)cs1`, the melting point was 201 to 202 °C. For `CC(C)(C)CC(C)(C)c1cc(Cl)c(O)c(-n2nc3ccc(C(F)(F)F)cc3n2)c1`, the melting point was 72 to 81 °C. In the case of `O=C(O)Cc1ncc2c(n1)-c1ccc(Cl)cc1C(c1ccccc1F)=NC2`, the melting point is reported as 138 to 140 °C. Compound `Cc1cc(CN2CCOCC2)cc2c1Cc1c(-c3ccsc3)n[nH]c1-2` has a melting point of 232 to 233 °C. Compound `O=[N+]([O-])c1ccc(-n2nc(CO)c3c2CCCC3)cc1` has a melting point of 219 °C. For `COc1ccc(C2=NN(CCCCCCN3C(=O)c4ccccc4C3=O)C(=O)[C@H]3CC=CC[C@@H]23)cc1OC` (relative stereo), the melting point was 104 to 105 °C. For `Cc1ccnc(C2C(=O)CC(C(C)C)CC2=O)c1` (centres undefined), the melting point was 104 to 106 °C. Compound `CN(C)CC(=O)N(C)c1ccc(OCC(=O)N[C@@H](CC(N)=O)C(=O)N[C@@H](Cc2ccccc2)[C@H](O)C(=O)N2CCC[C@H]2C(=O)NC(C)(C)C)cc1` has a melting point of 129 to 135 °C. `CCCCCCCCCCCCCCC1Cc2ccc(C(=O)O)cc2N1C` (racemic) showed a melting point of 115 to 118 °C. Work on `CN(C=O)c1ccccc1C(=O)COS(C)(=O)=O` yielded a melting point of 67 to 69 °C. For `Cc1nnc(-c2ccc3occ(-c4ccc(S(=O)(=O)N(C)C)cc4)c3c2)o1`, the melting point was 246 to 247 °C. Work on `Cc1cccc(Nc2cc(Nc3ccc(O)cc3)ncn2)c1` yielded a melting point of 242 to 245 °C. `COc1cc2nc(N3CCN(c4nc5ccccc5s4)CC3)nc(N)c2cc1OC` gave a melting point of 242 to 245 °C. Work on `COc1cc2c(cc1OC)C(c1c(Cl)cccc1Cl)NC(=O)C2` (centres undefined) yielded a melting point of 228 to 229 °C. `COc1ccc2cc(CN3CCC(NC(=O)NC(=O)c4ccccc4)CC3)ccc2c1` showed a melting point of 243 to 244 °C. Compound `O=C(Nc1cccc2ccccc12)N1C(=O)C2(CCCCC2)NC12CCCCC2` has a melting point of 157 to 160 °C. `Clc1ccc(C2(Cn3cncn3)CCC2)cc1` showed a melting point of 124 to 125 °C. `COc1cc(/C=C2/C(=O)NC(=O)/C2=C/c2ccccc2)cc(OC)c1OC` gave a melting point of 176 to 178 °C. In the case of `O=C(CCC1CCNCC1)c1ccc2c(c1)NCCCC2`, the melting point is reported as 104 to 107 °C. For `CCOC(C#CCN1CCC(NC(=O)c2ccccc2)CC1)OCC`, the melting point was 130 °C. With `COc1ccc(-c2[nH]c(C(N)(C(F)(F)F)C(F)(F)F)nc2-c2ccc(F)cc2)cc1` the melting point was 123 to 124 °C. Work on `Cc1cc(-c2n[nH]c(Cc3ccccc3)n2)sc1C(=O)NCc1ccccc1` yielded a melting point of 168 to 171 °C. `COC(=O)c1cc(OC)c(O)cc1[N+](=O)[O-]` showed a melting point of 101 to 102 °C. Work on `COc1cc(F)c(-c2cncc(OC3SCC(OC(C)=O)C(OC(C)=O)C3OC(C)=O)c2)c(F)c1` (centres undefined) yielded a melting point of 62 °C. `CCOC(=O)c1cnn(C)c1C(=O)Nc1ccn2nc(C(C)C)nc2c1` showed a melting point of 175 to 177 °C.
